Laboratory results: patent US12459951B2, “Compounds that interact with RAS superfamily proteins for treatment of cancers, inflammatory diseases, rasopathies, and fibrotic disease” (SHY Therapeutics, LLC, priority 2022, dated 2025)
pIC50: −log10 of the molar value. Like-named read-outs stand apart in the source and are kept apart here.

Assays:
[1] = tested on: A375 (wild type Kras); experiment: Proliferation Assay (Cell Viability Assay); assay type: cell-based; conditions: Homo sapiens, A-375; for IC50: Proliferation assay, A375, read-out: A375 IC50 (nM) Melanoma
Summary of the method: (§1)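 Cells plated at 2000–5000/well overnight, then treated 2–4 days at 37 °C, 5% CO2 with compound at 10 μM single dose or serial dilutions for IC50, in 0.3% DMSO and 10% FBS. Viability read by CellTiter 96 Aqueous One (MTS); % proliferation inhibition calculated from raw data.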

[2] = tested on: BT-549 (expressing wild type KRAS); experiment: Proliferation Assay (Cell Viability Assay); assay type: cell-based; conditions: Homo sapiens; for IC50: BT-549, Proliferation assay, BT549, read-out: BT549 IC50 (nM) TNBC
Summary of the method: as §1

[3] = tested on: GP2d (expressing KRas G12D mutant); experiment: Proliferation Assay (Cell Viability Assay); assay type: cell-based; conditions: Homo sapiens; for IC50: Proliferation assay, read-out: GP2d IC50 (nM) Colorectal
Summary of the method: as §1

[4] = tested on: MM.1R (expressing wild type KRAS); experiment: Proliferation Assay (Cell Viability Assay); assay type: cell-based; conditions: Homo sapiens, read-out: MM.1R IC50 (nM) Multiple Myloma
Summary of the method: as §1

[5] = tested on: NCI-H358 (expressing KRas G12C mutant); experiment: Proliferation Assay (Cell Viability Assay); assay type: cell-based; conditions: Homo sapiens; for IC50: Proliferation assay, NCI-H358, read-out: NCI-H358 IC50 (nM) NSCLC
Summary of the method: as §1

[6] = tested on: A549 (expressing KRas G12S mutant); experiment: Proliferation Assay (Cell Viability Assay); assay type: cell-based; conditions: Homo sapiens, A549, NSCLC
Description: (§2) Cell lines: Human tumor-derived cell lines were purchased from American Type Culture Collection. Human tumor-derived pancreatic cancer cell line MiaPaca-2 (expressing KRAS G12C mutant) and Panc-1 (expressing KRas G12D mutant), and Human non-small cell lung cancer (NSCLC) cell line A549 (expressing KRas G12S mutant) were grown in complete DMEM-High Glucose medium. Human colon cancer cell line SW-620 (expressing KRas G12V mutant) was grown in RPMI 1640 medium. All cell lines were supplemented with penicillin (100 U/mL), streptomycin (100 μg/mL), and 10% heat-inactivated FBS at 37° C. in a humidified incubator with 5% CO2.
(§3) Method: Cells were plated at 2000 to 5000 cells/well density in 96-wells plate and cultured overnight. Small molecules to be tested were added to the cells in the final concentration of 10 μM in the presence of 0.3% DMSO and 10% FBS and incubated for 2-4 days at 37° C. in a humidified incubator with 5% CO2. For IC50 value determination, serial dilutions of compounds were added to cells under the same conditions.
(§4) Assay: At the end of the incubation period, cell viability was determined using the CellTiter 96® Aqueous One Solution Cell Proliferation Assay according to manufacturer specifications (Promega, Madison, WI). The percentage of small molecules inhibition of cellular proliferation was calculated from raw data.
(§5) Cell lines: these Human tumor-derived cell lines were purchased from American Type Culture Collection. Human tumor-derived pancreatic cancer cell line MiaPaca-2 (expressing KRAS G12C mutant) and Panc-1 (expressing KRas G12D mutant), and Human non-small cell lung cancer (NSCLC) cell line A549 (expressing KRas G12S mutant), and Human melanoma cell line A375 (wild type Kras) were grown in complete DMEM-High Glucose medium. Human tumor-derived pancreatic cancer cell lines SU86.86 (expressing KRas G12D mutant), BxPC3 (expressing wild type K-Ras), and Human non-small cell lung cancer (NSCLC) cell lines NCI-H441 (expressing KRas G12S mutant), NCI-H1975 (expressing wild type KRas), NCI-H358 (expressing KRas G12C mutant), NCI-H1299 (expressing NRas Q61H mutant), and Human colon cancer cell line SW-620 (expressing KRas G12V mutant), Human triple negative breast cancer cell line HCC-1806 (expressing wild type KRas), and Human tumor-derived multiple myeloma cell line MM.1R (expressing wild type KRAS), were grown in RPMI 1640 medium. Human tumor-derived breast cancer cell line BT-549 (expressing wild type KRAS) was grown in RPMI 1640 medium in the presence of 11.8U insulin. Human tumor-derived pancreatic cancer cell line HPAF-II (expressing KRas G12D mutant), Human triple negative breast cancer cell line BT-20 (expressing wild type KRas), and Human colon cancer cell line LS123 (expressing KRas G12S mutant), were grown in EMEM medium. Human tumor-derived pancreatic cancer cell line CF-PAC1 (expressing KRas G12V mutant) was frown in IMDM medium, and Human colon cancer cell line HT29 (expressing wild type KRas) was grown in McCoy's 5A medium. The colon cancer cell line GP2d (expressing KRas G12D mutant) was purchased from MilliporeSigma and grown in DMEM-High Glucose medium. All cell lines were supplemented with penicillin (100 U/mL), streptomycin (100 μg/mL), and 10% heat-inactivated FBS at 37° C. in a humidified incubator with 5% CO2.
as §3, with “that were” for “to be”, “FBS,” for “FBS”

[7] = tested on: Panc-1 (expressing KRas G12D mutant); experiment: Proliferation Assay (Cell Viability Assay); assay type: cell-based; conditions: Homo sapiens, Panc1, pancreatic
Description: as §2, §3, §4, §5
as §3, with “that were” for “to be”, “FBS,” for “FBS”

[8] = tested on: SW-620 (expressing KRas G12V mutant); experiment: Proliferation Assay (Cell Viability Assay); assay type: cell-based; conditions: Homo sapiens, SW-620, colon
Description: as §2, §3, §4, §5
as §3, with “that were” for “to be”, “FBS,” for “FBS”

[9] = Mouse Liver Microsome Metabolic Stability Assay; assay type: in vitro ADME; conditions: pH 7.4, Mouse liver microsomes, 37° C., NADPH, read-out: t½
Summary of the method: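 Compounds (2 μM, 1.6% solvent) incubated at 37 °C with mouse liver microsomes (0.42 mg/mL) in 100 mM phosphate pH 7.4 with an NADPH-regenerating system; five time points over 40 min, duplicates, LC-MS/MS. kel, t1/2 and Clint from linear regression of ln(AUC) vs. time; no-NADPH controls.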

IC50 [1] [nM]	IC50 [2] [nM]	IC50 [4] [nM]	IC50 [5] [nM]	half-life at 2 µM [9] [min]	SMILES	IC50 [3] [nM]	also measured
1 to 10	1 to 10	< 1	10 to 50		COc1ccnc(Nc2nc(-c3nccn3C)nn3cc(-c4ccn(C(C)C)n4)c(C)c23)c1 [Compound 58, 6-(1-Isopropyl-1H-pyrazol-3-yl)-N-(4-methoxypyridin-2-yl)-5-methyl-2-(1-methyl-1H-imidazol-2-yl)pyrrolo[2,1-f][1,2,4]triazin-4-amine]	10 to 50	pIC50 ([1]; A375, melanoma, KRas WT, read-out: Proliferation assay IC50): > 6.82; pIC50 ([2]; BT-549, Breast (TNBC), KRas WT, read-out: Proliferation assay IC50): > 6.82; pIC50 ([3]; colon, KRas G12D, read-out: Proliferation assay IC50): > 6.82; pIC50 ([5]; NCI-H358, NSCLC, KRas G12C, read-out: Proliferation assay IC50): > 6.82; pIC50 [6]: > 6.82; pIC50 [7]: > 6.82; pIC50 [8]: > 6.82
				> 10	Cc1c(-c2ccn(C)n2)cn2nc(-c3nccn3C)nc(Nc3cc(-c4ccccn4)ccn3)c12 [Compound 248, N-([2,4′-Bipyridin]-2′-yl)-5-methyl-2-(1-methyl-1H-imidazol-2-yl)-6-(1-methyl-1H-pyrazol-3-yl)pyrrolo[2,1-f][1,2,4]triazin-4-amine]		
				< 10	Cc1c(-c2ccn(C)n2)cn2nc(-c3nccn3C)nc(Nc3cc(-c4cccnc4)ccn3)c12 [Compound 250, N-([3,4′-Bipyridin]-2′-yl)-5-methyl-2-(1-methyl-1H-imidazol-2-yl)-6-(1-methyl-1H-pyrazol-3-yl)pyrrolo[2,1-f][1,2,4]triazin-4-amine]		
> 50	10 to 50	< 1	1 to 10	< 10	COc1cc(Nc2nc(-c3nccn3C)nn3cc(-c4ccn(C)n4)c(C)c23)n[nH]1 [Compound 252, N-(5-Methoxy-1H-pyrazol-3-yl)-5-methyl-2-(1-methyl-1H-imidazol-2-yl)-6-(1-methyl-1H-pyrazol-3-yl)pyrrolo[2,1-f][1,2,4]triazin-4-amine]	1 to 10	
10 to 50	1 to 10	< 1	1 to 10	> 10	Cc1cc(Nc2nc(-c3nccn3C)nn3cc(-c4ccn(C)n4)c(C)c23)n[nH]1 [Compound 255, 5-Methyl-2-(1-methyl-1H-imidazol-2-yl)-6-(1-methyl-1H-pyrazol-3-yl)-N-(5-methyl-1H-pyrazol-3-yl)pyrrolo[2,1-f][1,2,4]triazin-4-amine]	1 to 10	
				< 10	CCOc1cc(Nc2nc(-c3nccn3C)nn3cc(-c4ccn(C)n4)c(C)c23)n[nH]1 [Compound 260, N-(5-Ethoxy-1H-pyrazol-3-yl)-5-methyl-2-(1-methyl-1H-imidazol-2-yl)-6-(1-methyl-1H-pyrazol-3-yl)pyrrolo[2,1-f][1,2,4]triazin-4-amine]		
				> 10	Cc1c(-c2ccn(C)n2)cn2nc(-c3nccn3C)nc(Nc3cc(-c4ccccn4)[nH]n3)c12 [Compound 265, 5-Methyl-2-(1-methyl-1H-imidazol-2-yl)-6-(1-methyl-1H-pyrazol-3-yl)-N-(5-(pyridin-2-yl)-1H-pyrazol-3-yl)pyrrolo[2,1-f][1,2,4]triazin-4-amine]		
1 to 10	10 to 50	< 1	1 to 10	> 10	Cc1[nH]nc(Nc2nc(-c3nccn3C)nn3cc(-c4ccn(C)n4)c(C)c23)c1C [Compound 267, N-(4,5-Dimethyl-1H-pyrazol-3-yl)-5-methyl-2-(1-methyl-1H-imidazol-2-yl)-6-(1-methyl-1H-pyrazol-3-yl)pyrrolo[2,1-f][1,2,4]triazin-4-amine]	1 to 10	
				< 10	Cc1c(-c2ccn(C)n2)cn2nc(-c3nccn3C)nc(Nc3cc(C(C)C)[nH]n3)c12 [Compound 268, N-(5-Isopropyl-1H-pyrazol-3-yl)-5-methyl-2-(1-methyl-1H-imidazol-2-yl)-6-(1-methyl-1H-pyrazol-3-yl)pyrrolo[2,1-f][1,2,4]triazin-4-amine]		
